Laboratory results reported in patent US9677140B2, “Molecular diagnostic test for cancer” (Almac Diagnostics Limited, priority 2010, dated 2017).

Columns and labels:
[1] = system: HCC1937 BRCA1 mutant and HCC1937-BR (BRCA1 corrected) breast cancer cell-lines; settings: HCC1937 BRCA1 mutant cell-line relative to the BRCA1 corrected cell-line (HCC1937-BR); constant exposure, 12-14 days
Description: The HCC1937 parental, HCC1937-EV and HCC1937-BR cell-lines were kindly donated by Professor Paul Harkin from Queen's University College Belfast (QUB). The cell-lines were routinely maintained in RPMI-1640 medium supplemented with 50 U penicillin/ml, 50 μg streptomycin/ml, 2 mM glutamine, 1 mM Sodium Pyruvate and 20% (v/v) fetal bovine serum (FBS). The HCC1937-EV and HCC937-BR cell-lines also required 0.2 ml/mg geneticin. Cell-lines were cultured at 37° C. with a humidified atmosphere of 5% CO2.
Twenty-four hours following seeding the cells were exposed to medium containing increasing doses of drug. Cell medium was replenished every 4-5 days. After 12-14 days the cells were fixed in methanol, stained with crystal violet and counted. The percentage survival of control for a given dose was calculated as the plating efficiencies for that dose divided by the plating efficiencies of vehicle-treated cells. Survival curves and half maximal inhibitory concentration (IC50) values were calculated using GraphPad Prism.

[2] = system: HCC1937 BRCA1 mutant and HCC1937-BR (BRCA1 corrected) breast cancer cell-lines; assay: Cell viability assay (CellTitre-Glo), determination of cisplatin sensitivity; assay type: cell-based; settings: HCC1937 BRCA1 mutant cell-line relative to the BRCA1 corrected cell-line (HCC1937-BR); 96 hours exposure
Description: For measurement of sensitivity to cisplatin, exponentially growing cells were seeded into 96-well plates. […] Cells were incubated in the presence of drug for 96 hours following which time the viability of the cells was assessed using the Promega CellTitre-Glo luminescent cell viability assay. The sensitivity of the cells was calculated as the percentage of vehicle (DMSO) control.

Row | Compound | sensitivity to PARP-1 inhibitor (clonogenic survival) [1] | sensitivity to cisplatin (cell viability) [2]
1 | O=C(c1cc(Cc2n[nH]c(=O)c3ccccc23)ccc1F)N1CCCNCC1 [KU0058948] | more sensitive | 
2 | N.N.[Cl][Pt][Cl] [cisplatin] |  | more sensitive
